We go through 5 compounds from patent US8076320B2, “Crystalline forms of a pharmaceutical compound” (Cephalon, Inc., priority 2004, dated 2011).

SMILES strings stand for the structures.

What all share (format): physicochemical
Data set [1] is described as follows: Suspension of excess solid Compound I in solvent on a rotarmix, solid form determined by powder X-ray diffraction. The settings on record: 4 days, room temperature; for solid form after storage as suspension in acetonitrile (ACN): excess solid in ACN; for solid form after storage as suspension in methanol: excess solid in methanol.
Assay in data set [2]: as above
The procedure: In the following examples are used excess of solid Compound I, i.e. compared to the solvent the amounts of solid Compound I is such that not all the solid material comes into solution. The amounts used varied between 25-50 mg solid Compound I and 2-5 ml solvent. In the present context by “solid Compound I” is meant amorphous Compound I or any of the crystalline forms of Compound I as indicated below. • (i) Excess of amorphous Compound I was added to methanol and the resulting suspension was stored on a rotarmix for 4 days at room temperature. […] After filtration the supernatant was left for evaporation of the solvent. […] Conclusion: […]

Data set [3] is described as follows: Light exposure of the solid compound in a Heraeus Suntest CPS+. The settings on record: solid compound exposed to light for 14 h at 650W. The procedure: Experiments were carried out in a Heraeus Suntest CPS+ for the crystalline forms alpha, beta and gamma where the solid compound was exposed to light for 14 h at 650W.
[4] abbreviates: listed as crystalline alpha form of Compound I.
Setting [5] is: listed as crystalline beta form of Compound I.
Setting [6] is: listed as crystalline gamma form of Compound I.

As for `CCSCc1ccc2c(c1)c1c3c(c4c5cc(CSCC)ccc5n5c4c1n2[C@H]1C[C@](O)(C(=O)OC)[C@]5(C)O1)CNC3=O` [alpha], in data set [1] (setting [4]), the “solid form after storage as suspension in acetonitrile (ACN)” value (from here on “solid form after storage … (ACN)”) is recorded as “the gamma form” and the “solid form after storage as suspension in methanol” value (“solid form … in methanol” below) is listed as “still the alpha form”.
Turning to `CCSCc1ccc2c(c1)c1c3c(c4c5cc(CSCC)ccc5n5c4c1n2[C@H]1C[C@](O)(C(=O)OC)[C@]5(C)O1)CNC3=O` [beta], in data set [1] (setting [5]), the “solid form after storage … (ACN)” value is reported as “the gamma form” and the “solid form … in methanol” value is given as “the alpha form”.
Turning to `CCSCc1ccc2c(c1)c1c3c(c4c5cc(CSCC)ccc5n5c4c1n2[C@H]1C[C@](O)(C(=O)OC)[C@]5(C)O1)CNC3=O`, in data set [2] (excess solid in methanol, rotarmix, 4 days, room temperature, powder X-ray diffraction), the “solid form … in methanol” value is “the major part of the solid was the gamma form”. Moreover, the “solid form obtained on evaporation of the filtered supernatant” value in data set [2] (methanol suspension after 4 days, filtration, supernatant left for evaporation of the solvent) is reported as “the alpha form”.
Turning to `CCSCc1ccc2c(c1)c1c3c(c4c5cc(CSCC)ccc5n5c4c1n2[C@H]1C[C@](O)(C(=O)OC)[C@]5(C)O1)CNC3=O` [amorphous substance], the “degradation after light treatment” value in data set [3] is reported as about 60%. In data set [1] (listed as amorphous Compound I), the “solid form after storage … (ACN)” value is given as “the gamma form” and the “solid form … in methanol” value is reported as “the alpha form”.
For the compound `CCSCc1ccc2c(c1)c1c3c(c4c5cc(CSCC)ccc5n5c4c1n2[C@H]1C[C@](O)(C(=O)OC)[C@]5(C)O1)CNC3=O` [gamma], in data set [1] (setting [6]), the “solid form after storage … (ACN)” value is “still the gamma form” and the “solid form … in methanol” value is given as “still the gamma form”.
